Tested on: 485368-065-R3-J5-PDC spheroids with HUVEC/MSC, viability
Experiment: Anticancer human tumor 485368-065-R3-J5-PDC patient-derived pancreatic carcinoma cell line growth inhibition [RAS]
Conditions: for IC50: curve of first compound; for viability, T/C: stronger effect = lower value; active means viability on the fitted dose curve at most 10% of control; inactive means the rest
From the text: RAS pathway inhibitors in Combinations in Complex Spheroids
A high-throughput screen of multi-cell type tumor spheroids was designed to identify active combinations of RAS pathway inhibitors and targeted small molecules. Complex spheroids include a stromal component modeled by human endothelial cells (HUVEC) and fibroblasts modeled by human mesenchymal stem cells (MSCs). The concentration ranges selected for each drug and investigational agent were based upon clinically achievable concentrations if the clinical Cmax of the agent was known.
Compounds. The drugs and investigational agents: abemaciclib (NSC768073), cobimetinib (NSC768068), divarasib (GDC6063, NSC841802), docetaxel (NSC628503), GDC-1971 (RLY-1971, NSC841576), gemcitabine (NSC613327), inavolisib (NSC800729), ipatasertib (NSC767898), KB-0742 (NSC834161), MRTX-1133 (NSC836407), osimertinib (NSC779217), RMC-4630 (NSC839698), RMC-6236 (NSC851965), RMC-6291 (NSC852671), Ro-3306 (NSC812927), sapanisertib (NSC764658), SN-38 (NSC673596), staurosporine (NSC755774), SY5609 (NSC837396), and tovorafenib (DAY101, NSC766906), were obtained from the National Cancer Institute (NCI) Developmental Therapeutics Program Chemical Repository. The FDA-approved anticancer drug set is available from the NCI Developmental Therapeutics Program. […] The stock solutions were prepared in dimethyl sulfoxide (DMSO, Sigma-Aldrich, St. Louis, MO, cat. D2650) at 800-fold the tested concentration and stored at -70 degrees C prior to their use. All drugs and investigational agents were tested over a range starting from a high concentration at or near the clinical Cmax and decreasing in half-log increments. If the clinical Cmax for an agent had not been determined, the highest concentration tested was 10 microM.
Cell Culture. All cells were maintained in an incubator at 37 degrees C and 5% CO2 with 95% humidity. The PDC lines were cultured according to standard operating procedures established by the NCI PDMR. All PDCs were thawed and cultured in Matrigel-coated flasks prepared with a working solution of 1X Ham's F-12 nutrient mix, without supplementation (Invitrogen, Waltham, MA, cat. 11765054), 100 U/mL penicillin-streptomycin (Invitrogen, cat. 15140122), and 2.5% Matrigel (Corning Inc., Corning, NY, cat. 354248) for the first three passages. The 362531-283-R-J2-PDC and 782815-120-R-J1-PDC lines were cultured in 6C/Colon 1B media, which includes advanced DMEM/F-12 (Thermo Fisher Scientific, cat. 12634028), 10 mM HEPES (Thermo Fisher Scientific, cat. 15630080), 1X GlutaMAX supplement (Thermo Fisher Scientific, cat. 35050061), 0.1 mg/mL primocin (InvivoGen, San Diego, CA, cat. ant-pm-2), 10% defined fetal bovine serum, heat inactivated (HyClone Laboratories Inc., Logan, UT, cat. SH30070.03HI), 50% L-WRN conditioned media (ATCC, cat. CRL-3276), 1.25 mM N-Acetyl-L-cysteine (Sigma-Aldrich, cat. A9165), 10 mM nicotinamide (Sigma-Aldrich, cat. N0636), 1X B-27 supplement (Thermo Fisher Scientific, cat. 17504044), 1X N-2 supplement (Thermo Fisher Scientific, cat. 17502048), 50 ng/mL human EGF (Thermo Fisher Scientific, cat. PHG0311), and 10 microM Y-27632 dihydrochloride (Tocris Bioscience, cat. 1254). The K12877-001-R-J1-PDC line was cultured in 6I media, which includes all 6C/Colon 1B media plus 10 ng/mL human FGF-10 (PeproTech, cat. 100-26), 1 ng/mL human FGF-2 (PeproTech, cat. 100-18B), 1 µM prostaglandin E2 (Tocris Bioscience, cat. 2296), […] hydrocortisone (Sigma-Aldrich, cat. H4001), and […] bovine insulin (Sigma-Aldrich, cat. I6634). The K86415-001-R-J1-PDC line was cultured in 6D media, which includes all 6C/Colon 1B media components minus the L-WRN conditioned media. The 485176-168-R4-J1-PDC was cultured in PANC media, which includes all 6C/Colon 1B media plus 100 ng/mL human FGF-10 (PeproTech, cat. 100-26), 500 nM SB-431542 (Selleckchem, cat. S1067), and 10 nM gastrin (Tocris Bioscience, cat. 3006). […]

[1] = second compound 0.0316 µM, first compound 0.0316 µM
[2] = second compound 0.0316 µM, first compound 0.1 µM
[3] = second compound 0.1 µM, first compound 0.0316 µM
[4] = second compound 0.1 µM, first compound 0.1 µM
[5] = second compound 0.316 µM, first compound 0.0316 µM
[6] = second compound 0.316 µM, first compound 0.1 µM
[7] = second compound 1 µM, first compound 0.0316 µM
[8] = second compound 1 µM, first compound 0.1 µM
[9] = second compound 3.16 µM, first compound 0.0316 µM
[10] = second compound 3.16 µM, first compound 0.1 µM
[11] = second compound 10 µM, first compound 0.0316 µM
[12] = second compound 10 µM, first compound 0.1 µM
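Further: spheroids exposed to agents for seven days before readout.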

CC(C)n1nc(-c2ccc3oc(N)nc3c2)c2c(N)ncnc21 + C#Cc1c(F)ccc2cc(O)cc(-c3ncc4c(N5CC6CCC(C5)N6)nc(OCC56CCCN5CC(F)C6)nc4c3F)c12
16.8 nM: IC50 (second compound 0.316 µM)
11.5 nM: IC50 (second compound 3.16 µM)
17.3 nM: IC50 (second compound 1 µM)
18.6 nM: IC50 (second compound 0.1 µM)
19.2 nM: IC50 (second compound 0.0316 µM)
inactive: viability, T/C (second compound 0.0316 µM, first compound 0.000316 µM) 96.7% | viability, T/C (second compound 0.0316 µM, first compound 0.001 µM) 97% | viability, T/C (second compound 0.0316 µM, first compound 0.00316 µM) 76.4% | viability, T/C (second compound 0.0316 µM, first compound 0.01 µM) 65.5% | viability, T/C [1] 39.3% | viability, T/C [2] 18.7% | viability, T/C (second compound 0.1 µM, first compound 0.000316 µM) 97.3% | viability, T/C (second compound 0.1 µM, first compound 0.001 µM) 90.6% | viability, T/C (second compound 0.1 µM, first compound 0.00316 µM) 88.9% | viability, T/C (second compound 0.1 µM, first compound 0.01 µM) 65.7% | viability, T/C [3] 36.4% | viability, T/C [4] 18.7% | viability, T/C (second compound 0.316 µM, first compound 0.000316 µM) 99.8% | viability, T/C (second compound 0.316 µM, first compound 0.001 µM) 99.4% | viability, T/C (second compound 0.316 µM, first compound 0.00316 µM) 83.6% | viability, T/C (second compound 0.316 µM, first compound 0.01 µM) 61.8% | viability, T/C [5] 36.1% | viability, T/C [6] 18.7% | viability, T/C (second compound 1 µM, first compound 0.000316 µM) 101% | viability, T/C (second compound 1 µM, first compound 0.001 µM) 96.8% | viability, T/C (second compound 1 µM, first compound 0.00316 µM) 82.8% | viability, T/C (second compound 1 µM, first compound 0.01 µM) 63.6% | viability, T/C [7] 35.7% | viability, T/C [8] 17.8% | viability, T/C (second compound 3.16 µM, first compound 0.000316 µM) 71.3% | viability, T/C (second compound 3.16 µM, first compound 0.001 µM) 76.5% | viability, T/C (second compound 3.16 µM, first compound 0.00316 µM) 67.2% | viability, T/C (second compound 3.16 µM, first compound 0.01 µM) 52.9% | viability, T/C [9] 28.9% | viability, T/C [10] 14.8% | viability, T/C (second compound 10 µM, first compound 0.000316 µM) 47.3% | viability, T/C (second compound 10 µM, first compound 0.001 µM) 36% | viability, T/C (second compound 10 µM, first compound 0.00316 µM) 32.2% | viability, T/C (second compound 10 µM, first compound 0.01 µM) 31.1% | viability, T/C [11] 18.1% | viability, T/C [12] 13.1%
< 0.316 nM: IC50 (second compound 10 µM)

C[C@@H](NC(=O)c1ncnc(N)c1Cl)c1ncc(C(=O)Nc2cc(C(F)(F)F)c(Cl)cn2)s1 + C#Cc1c(F)ccc2cc(O)cc(-c3ncc4c(N5CC6CCC(C5)N6)nc(OCC56CCCN5CC(F)C6)nc4c3F)c12
528 nM: IC50 (second compound 10 µM)
> 10000 nM: IC50 (second compound 0.0316 µM) | IC50 (second compound 0.1 µM) | IC50 (second compound 0.316 µM) | IC50 (second compound 1 µM) | IC50 (second compound 3.16 µM)
inactive: viability, T/C [1] 103% | viability, T/C [2] 105% | viability, T/C (second compound 0.0316 µM, first compound 0.316 µM) 114% | viability, T/C (second compound 0.0316 µM, first compound 1 µM) 114% | viability, T/C (second compound 0.0316 µM, first compound 3.16 µM) 98% | viability, T/C (second compound 0.0316 µM, first compound 10 µM) 69.7% | viability, T/C [3] 111% | viability, T/C [4] 115% | viability, T/C (second compound 0.1 µM, first compound 0.316 µM) 113% | viability, T/C (second compound 0.1 µM, first compound 1 µM) 113% | viability, T/C (second compound 0.1 µM, first compound 3.16 µM) 96.5% | viability, T/C (second compound 0.1 µM, first compound 10 µM) 57.9% | viability, T/C [5] 101% | viability, T/C [6] 104% | viability, T/C (second compound 0.316 µM, first compound 0.316 µM) 105% | viability, T/C (second compound 0.316 µM, first compound 1 µM) 100% | viability, T/C (second compound 0.316 µM, first compound 3.16 µM) 93.2% | viability, T/C (second compound 0.316 µM, first compound 10 µM) 75.2% | viability, T/C [7] 109% | viability, T/C [8] 106% | viability, T/C (second compound 1 µM, first compound 0.316 µM) 104% | viability, T/C (second compound 1 µM, first compound 1 µM) 106% | viability, T/C (second compound 1 µM, first compound 3.16 µM) 96% | viability, T/C (second compound 1 µM, first compound 10 µM) 69.9% | viability, T/C [9] 97.6% | viability, T/C [10] 98.6% | viability, T/C (second compound 3.16 µM, first compound 0.316 µM) 94.5% | viability, T/C (second compound 3.16 µM, first compound 1 µM) 93.3% | viability, T/C (second compound 3.16 µM, first compound 3.16 µM) 89.1% | viability, T/C (second compound 3.16 µM, first compound 10 µM) 62% | viability, T/C [11] 53.5% | viability, T/C [12] 50.5% | viability, T/C (second compound 10 µM, first compound 0.316 µM) 50.3% | viability, T/C (second compound 10 µM, first compound 1 µM) 46% | viability, T/C (second compound 10 µM, first compound 3.16 µM) 52.6% | viability, T/C (second compound 10 µM, first compound 10 µM) 46.9%
